According to patent US4466970A, “Dioxocyclobutene compounds” (Smith Kline & French Laboratories Limited, priority 1982, dated 1984):

Tested on: histamine H2 -receptors
Assay: Heidenhain pouch dog: inhibition of histamine-stimulated acid secretion
Assay type: in vivo
Conditions: intravenous administration; dose levels adjusted to produce similar peak responses

## Nc1c(NCCCOc2cc(CN3CCCCC3)ccn2)c(=O)c1=O [Example 1, 1-[3-[4-(Piperidinomethyl)pyrid-2-yloxy]prop-1-ylamino]-2-aminocyclobut-1-ene-3,4-dione]
  duration of action relative to cimetidine: significant increase in duration of action
